Test results as given in patent US5527801A, “Ameliorant for blood lipid metabolism” (Dainippon Pharmaceutical Co., Ltd., priority 1991, dated 1996).
Where two headings read alike, the source gives them in different places.

How the values were obtained:
phospholipid in plasma = assay: Phospholipid in plasma of rabbits fed high fat feed; format: in vivo, male white Japanese rabbits; conditions: for Phospholipid concentration in plasma: ± standard error; for Phospholipid concentration, effect in words: vs High fat feed + Vehicle, up to 9 weeks
Method: (§1) In this experiment, male white Japanese rabbits (5 to 7 rabbits/group) were used. The high fat feed was prepared by adding 1% cholesterol and 6% coconut oil to the solid feed (Oriental Yeast Co., Ltd., RC-4).
(§2) Separately, in the normal feed group, each rabbit was given normal solid feed (RC-4) (100 g/day) and a vehicle (tragacanth solution) orally.

α1-receptor = conditions: Jpn. J. Pharmacol., 52 (suppl. 1), 212 (1990); cited from earlier work
[1] = tested on: total cholesterol in plasma; assay: Total cholesterol in plasma of rabbits fed high fat feed; format: in vivo, male white Japanese rabbits; conditions: for Total cholesterol concentration in plasma: ± standard error; for Total cholesterol concentration, effect in words: vs High fat feed + Vehicle, up to 9 weeks
Method: as §1, §2

[2] = tested on: free cholesterol in plasma; assay: Free cholesterol in plasma of rabbits fed high fat feed; format: in vivo, male white Japanese rabbits; conditions: for Free cholesterol concentration in plasma: ± standard error; for Free cholesterol concentration, effect in words: vs High fat feed + Vehicle, up to 9 weeks
Method: as §1, §2

[3] = tested on: lipid deposition at aortic inner wall; assay: Area of lipid deposition at aortic inner wall of rabbits fed high fat feed (atherosclerosis); format: in vivo, male white Japanese rabbits; conditions: 9 weeks; for Area of lipid deposition at aortic inner wall: high fat feed, percentage of whole area of aortic inner wall, oral once a day: maleate of Compound A 30, diltiazem 50, prazosin 3 mg/kg/day; for Area of lipid deposition at the aortic inner wall, effect in words: vs High fat feed + Vehicle
Method: as §1, §2
(§3) Nine weeks after the beginning of administration, each rabbit was killed with bleeding under pentobarbital-anesthesia, and the aorta was taken out. The cholesterol amount in the aorta was determined, and the lipid deposition at the aortic inner wall was stained and the area of the stained parts was measured.

[4] = tested on: cholesterol amount in aortas; assay: Cholesterol amount in the aorta of rabbits fed high fat feed (atherosclerosis); format: in vivo, male white Japanese rabbits; conditions: 9 weeks; for Cholesterol amount in aortas: high fat feed, oral once a day: maleate of Compound A 30, diltiazem 50, prazosin 3 mg/kg/day; for Cholesterol amount in the aorta, effect in words: vs High fat feed + Vehicle
Method: as §1, §2, §3

[5] = JP Kokoku 58341/1991 (U.S. Pat. No. 4,749,703); cited from earlier work
atherosclerosis = conditions: cited from earlier work
[6] = Hypotensive activity at the dosages of the experiment; format: in vivo; conditions: at 30 (maleate of Compound A), 50 (diltiazem), 3 (prazosin) mg/kg/day, oral
beagles = conditions: dog, in vivo
[7] = Acute toxicity (LD50), oral, mice; conditions: mouse, in vivo
rats = conditions: rat, in vivo
blood lipid = conditions: cited from earlier work
[8] = week 0, high fat feed, before treatment
[9] = week 6, high fat feed, oral once a day: maleate of Compound A 30, diltiazem 50, prazosin 3 mg/kg/day
[10] = week 8, high fat feed, oral once a day: maleate of Compound A 30, diltiazem 50, prazosin 3 mg/kg/day
[11] = week 9, high fat feed, oral once a day: maleate of Compound A 30, diltiazem 50, prazosin 3 mg/kg/day

O=C(CCCN1CCN(c2ccc(F)cc2)CC1)NC1c2ccccc2CSc2ccccc21 (stereo not shown) [Compound A]
Phospholipid concentration in plasma (phospholipid in plasma; [8]): 452 ± 42 mg/dL | Phospholipid concentration in plasma (phospholipid in plasma; [9]): 678 ± 70 mg/dL | Phospholipid concentration in plasma (phospholipid in plasma; [10]): 529 ± 66 mg/dL | Phospholipid concentration in plasma (phospholipid in plasma; [11]): 489 mg/dL | α1-receptor blocking activity (α1-receptor): have α1 -receptor blocking activity | Total cholesterol concentration in plasma [1, 8]: 1161 ± 110 mg/dL | Total cholesterol concentration in plasma [1, 9]: 1595 ± 136 mg/dL | Total cholesterol concentration in plasma [1, 10]: 1074 ± 162 mg/dL | Total cholesterol concentration in plasma [1, 11]: 1070 mg/dL | Free cholesterol concentration in plasma [2, 8]: 346 ± 34 mg/dL | Free cholesterol concentration in plasma [2, 9]: 503 ± 43 mg/dL | Free cholesterol concentration in plasma [2, 10]: 330 ± 56 mg/dL | Free cholesterol concentration in plasma [2, 11]: 306 mg/dL | Area of lipid deposition at aortic inner wall [3]: 35.2% | Cholesterol amount in aortas [4]: 234.4 ± 39.4 mg/kg of protein | calcium antagonistic activity [5]: potent calcium antagonistic activity

COc1ccc([C@@H]2Sc3ccccc3N(CCN(C)C)C(=O)[C@@H]2OC(C)=O)cc1 [diltiazem]
Phospholipid concentration, effect in words (phospholipid in plasma): no decrease | Phospholipid concentration in plasma (phospholipid in plasma; [8]): 454 ± 72 mg/dL | Phospholipid concentration in plasma (phospholipid in plasma; [9]): 931 ± 50 mg/dL | Phospholipid concentration in plasma (phospholipid in plasma; [10]): 825 ± 116 mg/dL | Phospholipid concentration in plasma (phospholipid in plasma; [11]): 718 mg/dL | Total cholesterol concentration, effect in words [1]: no decrease | Total cholesterol concentration in plasma [1, 8]: 1127 ± 202 mg/dL | Total cholesterol concentration in plasma [1, 9]: 2297 ± 127 mg/dL | Total cholesterol concentration in plasma [1, 10]: 2106 ± 293 mg/dL | Total cholesterol concentration in plasma [1, 11]: 1626 mg/dL | Free cholesterol concentration, effect in words [2]: no decrease | Free cholesterol concentration in plasma [2, 8]: 318 ± 57 mg/dL | Free cholesterol concentration in plasma [2, 9]: 660 ± 42 mg/dL | Free cholesterol concentration in plasma [2, 10]: 673 ± 96 mg/dL | Free cholesterol concentration in plasma [2, 11]: 486 mg/dL | Area of lipid deposition at aortic inner wall [3]: 45.2% | Area of lipid deposition at the aortic inner wall, effect in words [3]: not decreased at all | atherosclerosis inhibitory activity (atherosclerosis; Atherosclerosis, 51, 343-344 (1984)): no inhibitory activity | atherosclerosis inhibitory activity (atherosclerosis; rabbits, Lab. Invest. 49, 154-158 (1983)): shows the atherosclerosis inhibitory activity | Cholesterol amount in aortas [4]: 509.3 ± 240.1 mg/kg of protein | Cholesterol amount in the aorta, effect in words [4]: not decreased at all | hypotensive activity [6]: show hypotensive activity

O=C(CCCN1CCN(c2ccc(F)cc2)CC1)NC1c2ccccc2CSc2ccccc21 (stereo not shown) [maleate of Compound A]
Phospholipid concentration, effect in words (phospholipid in plasma): significantly decreased from 6 weeks after the beginning of the administration | toxicity by prolonged administration (beagles): no significant toxicity was observed | LD50 [7]: > 500 mg/kg | Total cholesterol concentration, effect in words [1]: significantly decreased from 8 weeks after the beginning of administration | toxicity by prolonged administration (rats): no significant toxicity was observed | Free cholesterol concentration, effect in words [2]: significantly decreased from 6 weeks after the beginning of the administration | Area of lipid deposition at the aortic inner wall, effect in words [3]: also decreased | Cholesterol amount in the aorta, effect in words [4]: significantly decreased | hypotensive activity [6]: show hypotensive activity

COc1cc2nc(N3CCN(C(=O)c4ccco4)CC3)nc(N)c2cc1OC [prazosin]
Phospholipid concentration, effect in words (phospholipid in plasma): no decrease | Phospholipid concentration in plasma (phospholipid in plasma; [8]): 474 ± 22 mg/dL | Phospholipid concentration in plasma (phospholipid in plasma; [9]): 1240 ± 94 mg/dL | Phospholipid concentration in plasma (phospholipid in plasma; [10]): 937 ± 112 mg/dL | Phospholipid concentration in plasma (phospholipid in plasma; [11]): 803 mg/dL | α1-receptor blocking activity (α1-receptor): having α1 -receptor blocking activity | Total cholesterol concentration, effect in words [1]: no decrease | Total cholesterol concentration in plasma [1, 8]: 1201 ± 45 mg/dL | Total cholesterol concentration in plasma [1, 9]: 3048 ± 236 mg/dL | Total cholesterol concentration in plasma [1, 10]: 2082 ± 194 mg/dL | Total cholesterol concentration in plasma [1, 11]: 1999 mg/dL | Free cholesterol concentration, effect in words [2]: no decrease | Free cholesterol concentration in plasma [2, 8]: 368 ± 22 mg/dL | Free cholesterol concentration in plasma [2, 9]: 916 ± 69 mg/dL | Free cholesterol concentration in plasma [2, 10]: 740 ± 96 mg/dL | Free cholesterol concentration in plasma [2, 11]: 584 mg/dL | blood lipid decreasing activity (blood lipid; Prog. Medicine 3, 1517-1525 (1983)): no blood lipid decreasing activity | blood lipid decreasing activity (blood lipid; human being, Am. J. Medicine, 76 (suppl. 2A), 79-84 (1984)): shows blood lipid decreasing activity | Area of lipid deposition at aortic inner wall [3]: 56.7% | Area of lipid deposition at the aortic inner wall, effect in words [3]: not decreased at all | Cholesterol amount in aortas [4]: 372.8 ± 63.9 mg/kg of protein | Cholesterol amount in the aorta, effect in words [4]: not decreased at all | hypotensive activity [6]: show hypotensive activity
